From patent publication US20090221522A1, “METHODS TO CORRECT GENE SET EXPRESSION PROFILES TO DRUG SENSITIVITY” (The Johns Hopkins University, priority 2008, published 2009)

System: direct pancreatic cancer xenografts (fine needle aspiration cells)
Test: Ex vivo perturbability assay, low-density microarray RT-PCR
Format: cell-based
Parameters: key to RRM1 gene expression / NFKB1 gene expression / BNIP3L gene expression / VHL gene expression / DCK gene expression / HIF1B gene expression / IGF1R gene expression / MAPK1 gene expression / MAP2K2 gene expression / JUN gene expression / IHH gene expression: % of untreated control (treated sample normalized to untreated)
Conditions: treated normalized to untreated control
Source text: Direct pancreatic cancer derived xenografts: Resected pancreatic adenocarcinomas are routinely implanted in nude mice at the Johns Hopkins Medical Institutions as a method to obtain enriched populations of neoplastic cells under an IRB-approved protocol from residual pancreatic cancer tumors. Tumor specimens from Whipple resection specimens were divided into 2-3 mm^3 pieces in antibiotic-containing RPMI media. Pieces of non-necrotic tissue were selected and immersed in Matrigel. Under anesthesia with isofluorane, tumors were implanted into five-to-six week-old female athymic (nu/nu) mice purchased from Harlan (Harlan Laboratories, Washington, D.C.). This research protocol was approved by the Johns Hopkins University Animal Use and Care Committee arid animals were maintained in accordance to guidelines of the American Association of Laboratory Animal Care. Tumors were propagated to subsequent cohorts of mice until a sufficient number were available for drug testing.
Fine needle aspiration (FNA): FNAs on mice were performed according to standard cytopathologic practice using 10 cc syringes and 25-gauge needles. The procedure was performed under inhaled general anesthesia with isofluorane. During each FNA procedure the first pass was smeared onto glass slides and used for morphologic analysis and quality control, (DiffQuik™ and Papanicoloau), and the second through sixth passes were used to acquire viable cells.
Ex vivo assay: FNA passes used to acquire viable cells were immediately transferred into 10 ml sterile prewarmed complete RPMI-1640 culture medium containing 10% FBS, penicillin (200 ug/ml), and streptomycin (200 ug/ml). Equivalent aliquots of cells were seeded in two wells of a 6-well polypropylene microplate. […] Following treatment, non-adherent and adherent cells (collected by scraping) were pooled together in a 1.5 mL microcentrifuge tube and centrifuged at 500 g for 5 mm at 4° C. After washing with PBS, cells were lysed in 100 μL of ice-cold RLT.
RNA extraction and cDNA generation: Total RNA was extracted from cells using the RNeasy™ Mini Kit (Qiagen, Valencia, Calif.) following the manufacturer's instructions. cDNA was synthesized using iScript cDNA synthesis kit (Bio-Rad) following the manufacturer's instructions.
Low-density micro arrays (LDMA): The samples were run in a customized assay with a 384-well format (ABI, Foster City, Calif.), where the expression of 45 to 381 relevant genes can be quantitatively tested. For this example, the array was designed with 8 replicated sections containing 48 wells, with primers of one gene per well: 3 housekeeping genes (HK: UBC, HPRT, SDHA), and 45 genes of interest. 50 μL of cDNA plus 50 μL of ABI mastermix were loaded onto each of two contiguous lanes to have duplicated readouts of every sample, and were run by real-time reverse transcriptase PCR (RT-PCR). The amount of change in the target genes was calculated by comparing the threshold cycle (CT) of each gene to the geometric mean of the CTs of the HK genes. Relative expression of the target genes was estimated using the formula: relative expression=2−^ΔCT, where ΔCT=CT (target gene)−CT (average of the 3 HK genes). The experiment was run in duplicate and mean values are analyzed.
Data analysis: The expression level of each gene in the treated sample was normalized to that of the untreated control. A significant change was defined when the gene expression either increases two-fold or more (>200%), or decreases to half or more (<50%). The rest is considered uninformative.

`Nc1ccn([C@@H]2O[C@H](CO)[C@@H](O)C2(F)F)c(=O)n1` [gemcitabine] gave an AXIN2 gene expression (case #1) of 67, a BAX gene expression (case #1) of 91 and a BNIP3L gene expression (case #1) of 109. It also gave a BRAF gene expression (case #1) of 116, a BRCA1 gene expression (case #1) of 81 and a CCND1 gene expression (case #1) of 127. It also gave a CXCR4 gene expression (case #1) of 100, a CyclinB1 gene expression (case #1) of 68 and a DCK gene expression (case #1) of 164. For the same molecule, the EGFR gene expression (case #1) was 124, the ERCC1 gene expression (case #1) was 107 and the FOS gene expression (case #1) was 113. The GADD45A gene expression (case #1) was 108, the GLI2 gene expression (case #1) was 72 and the HIF1A gene expression (case #1) was 126. It also gave an HIF1B gene expression (case #1) of 99, an IGF1R gene expression (case #1) of 51 and an IGFBP3 gene expression (case #1) of 135. It also gave an IHH gene expression (case #1) of 113, an MAP2K2 gene expression (case #1) of 127 and an MAPK3 gene expression (case #1) of 152. For the same molecule, the MDM2 gene expression (case #1) was 134, the MSLN gene expression (case #1) was 101 and the NOTCH1 gene expression (case #1) was 158. The NOTCH2 gene expression (case #1) was 113, the PLK1 gene expression (case #1) was 50 and the PSCA gene expression (case #1) was 106. The PTCH gene expression (case #1) was 81, the SHH gene expression (case #1) was 70 and the Survivin gene expression (case #1) was 81. For the same molecule, the TGFA gene expression (case #1) was 99, the VEGF gene expression (case #1) was 106 and the VHL gene expression (case #1) was 104. For the same molecule, the p21 gene expression (case #1) was 96, the AXIN2 gene expression (case #2) was 63 and the BAX gene expression (case #2) was 95. It also gave a BNIP3L gene expression (case #2) of 96, a BRAF gene expression (case #2) of 98 and a BRCA1 gene expression (case #2) of 63. The CCND1 gene expression (case #2) was 128, the CXCR4 gene expression (case #2) was 5 and the CyclinB1 gene expression (case #2) was 99. For the same molecule, the DCK gene expression (case #2) was 112, the EGFR gene expression (case #2) was 101 and the ERCC1 gene expression (case #2) was 78. The FOS gene expression (case #2) was 115, the GADD45A gene expression (case #2) was 108 and the GLI2 gene expression (case #2) was 82. The HIF1A gene expression (case #2) was 111, the HIF1B gene expression (case #2) was 129 and the IGF1R gene expression (case #2) was 105. The IGFBP3 gene expression (case #2) was 205, the IHH gene expression (case #2) was 131 and the MAP2K2 gene expression (case #2) was 78. It also gave an MAPK1 gene expression (case #2) of 104, an MAPK3 gene expression (case #2) of 71 and an MDM2 gene expression (case #2) of 92. The MSLN gene expression (case #2) was 118, the NFKB1 gene expression (case #2) was 138 and the NOTCH1 gene expression (case #2) was 138. It also gave an NOTCH2 gene expression (case #2) of 119, a PLK1 gene expression (case #2) of 34 and a PSCA gene expression (case #2) of 127. It also gave a PTCH gene expression (case #2) of 102, an RRM1 gene expression (case #2) of 166 and an SHH gene expression (case #2) of 108. The Survivin gene expression (case #2) was 110, the TGFA gene expression (case #2) was 113 and the VEGF gene expression (case #2) was 101. The VHL gene expression (case #2) was 116, the p21 gene expression (case #2) was 110 and the AXIN2 gene expression (case #3) was 44. For the same molecule, the BAX gene expression (case #3) was 78, the BNIP3L gene expression (case #3) was 82 and the BRAF gene expression (case #3) was 93. It also gave a BRCA1 gene expression (case #3) of 84, a CCND1 gene expression (case #3) of 106 and a CXCR4 gene expression (case #3) of 43. For the same molecule, the CyclinB1 gene expression (case #3) was 48, the DCK gene expression (case #3) was 80 and the EGFR gene expression (case #3) was 70. The ERCC1 gene expression (case #3) was 88, the FOS gene expression (case #3) was 123 and the GADD45A gene expression (case #3) was 104. The GLI2 gene expression (case #3) was 73, the HIF1A gene expression (case #3) was 106 and the HIF1B gene expression (case #3) was 106. For the same molecule, the IGF1R gene expression (case #3) was 66, the IGFBP3 gene expression (case #3) was 49 and the IHH gene expression (case #3) was 130. The MAP2K2 gene expression (case #3) was 106, the MAPK3 gene expression (case #3) was 109 and the MDM2 gene expression (case #3) was 137. It also gave an MSLN gene expression (case #3) of 91, an NFKB1 gene expression (case #3) of 94 and an NOTCH1 gene expression (case #3) of 132. It also gave an NOTCH2 gene expression (case #3) of 103, a PLK1 gene expression (case #3) of 36 and a PSCA gene expression (case #3) of 115. It also gave a PTCH gene expression (case #3) of 53, an RRM1 gene expression (case #3) of 81 and an SHH gene expression (case #3) of 65. The Survivin gene expression (case #3) was 58, the TGFA gene expression (case #3) was 92 and the VEGF gene expression (case #3) was 86. It also gave a VHL gene expression (case #3) of 118, a p21 gene expression (case #3) of 99 and an AXIN2 gene expression (case #4) of 142. The BAX gene expression (case #4) was 100, the BNIP3L gene expression (case #4) was 115 and the BRAF gene expression (case #4) was 175. It also gave a BRCA1 gene expression (case #4) of 343, a CCND1 gene expression (case #4) of 171 and a CXCR4 gene expression (case #4) of 13. The CyclinB1 gene expression (case #4) was 124, the DCK gene expression (case #4) was 176 and the EGFR gene expression (case #4) was 54. The ERCC1 gene expression (case #4) was 94, the FOS gene expression (case #4) was 108 and the GADD45A gene expression (case #4) was 78. The GLI2 gene expression (case #4) was 11, the HIF1A gene expression (case #4) was 146 and the HIF1B gene expression (case #4) was 56. The IGF1R gene expression (case #4) was 41, the IGFBP3 gene expression (case #4) was 130 and the IHH gene expression (case #4) was 92. For the same molecule, the JUN gene expression (case #4) was 83, the MAP2K2 gene expression (case #4) was 146 and the MAPK1 gene expression (case #4) was 68. The MAPK3 gene expression (case #4) was 108, the MDM2 gene expression (case #4) was 43 and the MSLN gene expression (case #4) was 89. It also gave an NFKB1 gene expression (case #4) of 104, an NOTCH1 gene expression (case #4) of 134 and an NOTCH2 gene expression (case #4) of 92. For the same molecule, the PLK1 gene expression (case #4) was 15, the PSCA gene expression (case #4) was 81 and the PTCH gene expression (case #4) was 93. For the same molecule, the RRM1 gene expression (case #4) was 79, the SHH gene expression (case #4) was 91 and the Survivin gene expression (case #4) was 166. For the same molecule, the TGFA gene expression (case #4) was 85, the VEGF gene expression (case #4) was 103 and the VHL gene expression (case #4) was 127. It also gave a p21 gene expression (case #4) of 102, an AXIN2 gene expression (case #5) of 210 and a BAX gene expression (case #5) of 109. For the same molecule, the BNIP3L gene expression (case #5) was 90, the BRAF gene expression (case #5) was 146 and the BRCA1 gene expression (case #5) was 95. It also gave a CCND1 gene expression (case #5) of 141, a CXCR4 gene expression (case #5) of 229 and a CyclinB1 gene expression (case #5) of 53. For the same molecule, the DCK gene expression (case #5) was 132, the EGFR gene expression (case #5) was 71 and the ERCC1 gene expression (case #5) was 105. It also gave an FOS gene expression (case #5) of 112, a GADD45A gene expression (case #5) of 121 and a GLI2 gene expression (case #5) of 118. The HIF1A gene expression (case #5) was 108, the HIF1B gene expression (case #5) was 65 and the IGF1R gene expression (case #5) was 61. It also gave an IGFBP3 gene expression (case #5) of 122, an IHH gene expression (case #5) of 141 and a JUN gene expression (case #5) of 135. The MAP2K2 gene expression (case #5) was 151, the MAPK1 gene expression (case #5) was 86 and the MAPK3 gene expression (case #5) was 95. The MDM2 gene expression (case #5) was 73, the MSLN gene expression (case #5) was 100 and the NFKB1 gene expression (case #5) was 163. For the same molecule, the NOTCH1 gene expression (case #5) was 89, the NOTCH2 gene expression (case #5) was 56 and the PLK1 gene expression (case #5) was 21. For the same molecule, the PSCA gene expression (case #5) was 102, the PTCH gene expression (case #5) was 48 and the RRM1 gene expression (case #5) was 92. It also gave an SHH gene expression (case #5) of 113, a Survivin gene expression (case #5) of 67 and a TGFA gene expression (case #5) of 97. The VEGF gene expression (case #5) was 107, the VHL gene expression (case #5) was 79 and the p21 gene expression (case #5) was 143.
